Test results as given in PMC3238500 (Archives of biochemistry and biophysics, 2011).

Target: pyruvate carboxylase R472S mutant (RePC) (Rhizobium etli, UniProt Q2K340, R472S)
Format: biochemical

## CC(=O)SCCNC(=O)CCNC(=O)[C@H](O)C(C)(C)COP(=O)(O)OP(=O)(O)OC[C@H]1O[C@@H](n2cnc3c(N)ncnc32)[C@H](O)[C@@H]1OP(=O)(O)O [acetyl CoA]
  Ka (activation constant): 1.65 ± 0.05 mM
